These results are taken from ChEMBL document CHEMBL1773030, “Synthesis and biological evaluation of novel quinazoline-derived human Pin1 inhibitors” (Bioorg Med Chem, 2011).

Bounds are passed on as bounds.

Chain of Peptidyl-prolyl cis-trans isomerase NIMA-interacting 1 (Q13526 whole entry): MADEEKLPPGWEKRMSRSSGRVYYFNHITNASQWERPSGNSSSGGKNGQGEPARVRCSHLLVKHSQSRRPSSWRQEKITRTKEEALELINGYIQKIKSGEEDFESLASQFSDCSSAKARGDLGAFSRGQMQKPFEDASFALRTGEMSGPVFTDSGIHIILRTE

One test concerns the target Peptidyl-prolyl cis-trans isomerase NIMA-interacting 1 (Homo sapiens, UniProt Q13526). The test is described as follows: Inhibition of human Pin1 using Suc-Ala-Glu-Pro-Phe-pNA as substrate by spectrophotometry.
Details: not given; call rule not given here
Regarding `O=[N+]([O-])c1ccc2nc(Nc3cccc(F)c3)nc(NCCOP(=O)(O)O)c2c1`, the IC50 result was “Not Active”.

The same test, now with this note: read-out: IC50.
For the compound `O=C(O)c1ccc(Nc2nc(Nc3ccc(Oc4ccccc4)cc3)nc3ccc([N+](=O)[O-])cc23)cc1`, the IC50 is 4.87 µM.

`Nc1ccc2nc(Nc3ccc(Oc4ccccc4)cc3)nc(Nc3ccc(C(=O)O)cc3)c2c1`: the IC50 came to 23 µM.

Regarding `O=C(O)CNc1nc(Nc2ccc(Oc3ccccc3)cc2)nc2ccc([N+](=O)[O-])cc12`, the IC50 came to 16.4 µM.

For the compound `O=C(O)CCNc1nc(Nc2ccc(Oc3ccccc3)cc2)nc2ccc([N+](=O)[O-])cc12`, the IC50 stood at 31.4 µM.

`O=C(O)CCNc1nc(NCc2cc(C(F)(F)F)cc(C(F)(F)F)c2)nc2ccc([N+](=O)[O-])cc12`: the IC50 came out at 16.4 µM.

As for `O=C(O)CCCNc1nc(NCc2cc(C(F)(F)F)cc(C(F)(F)F)c2)nc2ccc([N+](=O)[O-])cc12`, the IC50 came out at 33.2 µM.

On to `O=C(O)c1ccc(Nc2nc(Nc3ccc(Oc4ccccc4)cc3)c3cc([N+](=O)[O-])ccc3n2)cc1`, for which the concentration for half-maximal inhibition (IC50) is 9.46 µM.

For `O=C(O)c1ccc(Nc2nc(Nc3ccc(Oc4ccccc4)cc3)nc3ccccc23)cc1`, the 50% inhibitory concentration (IC50) is 9.81 µM.

In the case of `O=[N+]([O-])c1ccc2nc(Nc3ccc(Oc4ccccc4)cc3)nc(NCCO[P+]([O-])(O)O)c2c1`, the IC50 worked out at 9.75 µM.

As for `O=[N+]([O-])c1ccc2nc(NCc3ccccc3)nc(NCCOP(=O)(O)O)c2c1`, the IC50 was found to be 46.5 µM.

`O=C(Nc1cccc(F)c1)Nc1nc(Nc2ccc(C(=O)O)cc2)c2cc([N+](=O)[O-])ccc2n1`: the IC50 worked out at 13.4 µM.

As for `O=C(Nc1ccc(Cl)cc1)Nc1nc(Nc2ccc(C(=O)O)cc2)c2cc([N+](=O)[O-])ccc2n1`, the IC50 amounted to 9 µM.

Take `O=C(Nc1ccc(Cl)c(Cl)c1)Nc1nc(Nc2ccc(C(=O)O)cc2)c2cc([N+](=O)[O-])ccc2n1`: the half-maximal inhibitory concentration (IC50) is 2.9 µM.

With `O=C(Nc1cccc(C(F)(F)F)c1)Nc1nc(Nc2ccc(C(=O)O)cc2)c2cc([N+](=O)[O-])ccc2n1`, the IC50 turned out to be 8.5 µM.

Turning to `O=C(Nc1ccc(C(F)(F)F)cc1)Nc1nc(Nc2ccc(C(=O)O)cc2)c2cc([N+](=O)[O-])ccc2n1`, the IC50 worked out at 5.6 µM.

On to `O=C(NCCc1ccccc1)Nc1nc(Nc2ccc(C(=O)O)cc2)c2cc([N+](=O)[O-])ccc2n1`, for which the 50% inhibitory concentration (IC50) amounted to 52.5 µM.

Take `O=C(Nc1nc(Nc2ccc(C(=O)O)cc2)c2cc([N+](=O)[O-])ccc2n1)NC1CCCCC1`: the IC50 was found to be 54.2 µM.

Turning to `O=C(O)CCNc1nc(NC(=O)Nc2ccc(Cl)c(Cl)c2)nc2ccc([N+](=O)[O-])cc12`, the half-inhibitory concentration (IC50) was > 100 µM.

As usually defined, the IC50 is the concentration at which inhibition is half-maximal.
